Measured values as given in patent publication US10214564B2, “Antimicrobial peptides derived from hepatitis B virus core protein arginine-rich domain” (priority 2013, dated 2019).
Like-named read-outs stand apart in the source and are kept apart here. Where no end group is shown, it is not given here.

Key:
[1] = tested on: tested bacteria and fungi; type: cell-based; settings: for bacteria; serine-phosphorylated peptides
Description: (§1) The antimicrobial activities of HBc ARD peptides were tested on numerous bacterial strains from ATCC, including Pseudomonas aeruginosa Migula strain (ATCC 27853, ampicillin-resistant), Pseudomonas aeruginosa Migula strain (ATCC 9027, ampicillin-resistant), Klebsiella pneumoniae strain (ATCC 17593), Escherichia coli strain (ATCC 25922), Staphylococcus aureus subsp. strain (ATCC 25923, methicillin-resistant), Staphylococcus aureus subsp. strain (ATCC29213, methicillin-resistant), Staphylococcus aureus subsp. strain (ATCC 19636, methicillinresistant), and Candida albicans strain (ATCC 10231).
(§2) All peptides were purchased from Yao-Hong Biotechnology Inc. (Taipei, Taiwan). Vendors provided data of peptide characterizations, including HPLC and Mass. Antimicrobial activity was determined as described with some modifications as detailed below. Bacteria were grown overnight in Mueller-Hinton broth (Difeo) at 37° C., and during the mid-logarithmic phase, bacteria were diluted to 10^6 CFU (colony formation unit)/ml in phosphate buffer (10 mM sodium phosphate and 50 mM sodium chloride, pH 7.2). Peptides were serially diluted in the same buffer. Fifty microliter (μl) of bacteria was mixed with fifty μl of peptides at varying concentrations followed by incubation at 37° C. for 3 hours without shaking. […]

[2] = tested on: Huh7, HepG2, Vero and HEK293 cells; assay: Cytotoxicity, MTT assay; type: cell-based, human, monkey; settings: for effect on cell viability: 0 to 100 μM, 1 hour at 37° C.
Description: (§3) (A) Hemolytic activities of HBc147-183 and melittin were measured with 10% human red blood cells (RBC). […] (B) Huh7, HepG2, Vero and HEK293 cells were incubated with varying concentrations (0 to 100 μM) of HBc147-183 and melittin for 1 hour at 37° C. The effects on cell viability were determined by MTT assay. Melittin was used as a positive control. […] (C) Kidney cells, Vero and HEK293 were stained with CFSE and seeded at day 0. At day 1, cells were incubated with varying concentrations (0 to 100 μM) of HBc147-183 for 1 hour. Cell proliferation at day 1 and day 3 were determined by flow cytometry. […] Samples assayed in FIGS. 7A-C were measured in triplicates. (D) (D) In vivo toxicity of ARD peptide HBc147-183 was determined using three-week old male ICR mice. The mice were injected intraperitoneally with peptide (10 and 20 mg/kg of body weight).
Cytotoxicity was measured in HepG2, Huh7, HEK293, and Vero cells by MTT assay. Cells were seeded at 10^4 cells/well in a 96-well plate and serial dilutions of peptides were added into each well. PBS was used as a negative control and melittin was used as a positive control. After 1 hour of incubation, the medium were replaced by a fresh medium containing 10% MTT solution (PROMEGA™), and the plate was incubated for 4 hours in 5% CO2 at 37° C., The absorbance at the wavelength a 595 nm was measured by an ELISA reader (BIO-RAD™ model 680).

[3] = tested on: P. aeruginosa; type: cell-based, Pseudomonas aeruginosa
Description: as §1
(§4) Clinical isolates of Pseudomonas aeruginosa (NHRI-01, NHRI-02 AND NHRI-04) were obtained through the program of Taiwan Surveillance of Antimicrobial Resistance, National Health Research Institutes, Taiwan, Acinetobacter baumannii (ATCC 17989, ATCC 17978 CR, ATCC19606, ATCC 19606 CR, TCGH 45530 AND TCGH 46709) were obtained from Tzu-Chi Buddhist General Hospital in Taiwan, and clinical isolates (TCGH 1 45530 AND TCGH 46709) were identified using the Vitek system (Biomerieux Vitek, Inc., MO, USA). A. baumannii is defined as multidrug-resistant when the organism is resistant to piperacillin, piperacillin-tazobactam, ampicillin/sulbactam, imipenem, ceftazidime, gentamicin, amikacin, tetracycline, chloramphenicol, ciprofloxacin, and cotrimoxazole. Susceptibility to colistin was determined using the broth-dilution method, in accordance with the guidelines of the Clinical and Laboratory Standards Institute.
as §2, with “buffer.” for “buffer. Fifty microliter (μl) of bacteria was mixed with fifty μl of peptides at varying concentrations followed by incubation at 37° C. for 3 hours without shaking.”

[4] = tested on: E. coli; type: cell-based, Escherichia coli; settings: for Minimal bactericidal concentration: E. coli ATCC 25922
Description: as §1
(§5) All peptides were purchased from Yao-Hong Biotechnology Inc. (Taipei, Taiwan). Vendors provided data of peptide characterizations, including HPLC and Mass. Antimicrobial activity was determined as described with some modifications as detailed below. Bacteria were grown overnight in Mueller-Hinton broth (Difeo) at 37° C., and during the mid-logarithmic phase, bacteria were diluted to 10^6 CFU (colony formation unit)/ml in phosphate buffer (10 mM sodium phosphate and 50 mM sodium chloride, pH 7.2). Peptides were serially diluted in the same buffer. Fifty microliter (μl) of bacteria was mixed with fifty μl of peptides at varying concentrations followed by incubation at 37° C. for 3 hours without shaking. At the end of incubation, bacteria were placed on Mueller-Hinton broth agar plates, and allowed growth at 37° C. overnight for measurement of minimal bactericidal concentration (MBC). […] All peptides were tested in triplicate.

[5] = tested on: K. pneumoniae; type: cell-based, Klebsiella pneumoniae; settings: for Minimal bactericidal concentration: K. pneumoniae ATCC 13884
Description: as §1, §5

[6] = tested on: S. aureus; type: cell-based, Staphylococcus aureus; settings: for Minimal bactericidal concentration: S. aureus ATCC 19636
Description: as §1, §5

[7] = tested on: ICR mice; assay: In vivo acute toxicity
Description: as §3
Three-week old male ICR mice (19 to 21 g) were purchased from BioLASCO (Taiwan) Overnight culture of bacteria in BHI broth (Difco) was subcultured in fresh BRI broth to log phase. Inoculums were diluted in BHI broth to indicated densities. To test the acute toxicity of ARD peptide in vivo, ICR male mice were inoculated intraperitoncally (i.p.) with 10 and 20 mg/kg HBc147-183 in PBS, respectively. […] After peptide injection, the number of dead mice was recorded daily for 7 days post-injection. […] Mortality was monitored daily for 7 days post-inoculation. […]

[8] = tested on: A. baumannii; type: cell-based, Acinetobacter baumannii
Description: as §4
All peptides were purchased from Yao-Hong Biotechnology Inc. (Taipei, Taiwan). Vendors provided data of peptide characterizations, including HPLC and Mass. Antimicrobial activity was determined as described with some modifications as detailed below. […]

[9] = tested on: C. albicans; type: cell-based, Candida albicans
Description: as §1, §2

[10] = tested on: human red blood cells; assay: Hemolytic activity; type: cell-based; settings: 10% hRBCs, one hour of incubation
Description: as §3
The hemolytic activities of peptides were determined by hemolysis against human red blood cells (hRBCs). Human blood was obtained in EDTA-containing tube and was centrifuged at 450 g for 10 min. […] After centrifugation at 450 g for 10 min, the percentage of hemolysis was determined by measuring the absorbance at the wavelength of 405 nm of the supernatant. Blank and 100% hemolysis were determined in PBS buffer and in the presence of 1% Triton X-100, respectively.

[11] = tested on: Vero and HEK293 cells; assay: CFSE cell proliferation assay; type: cell-based, human, monkey; settings: 5, 25 and 100 μM for 1 hour, day 3 vs day 1
Description: as §3
To set up CFSE cell proliferation assay, 293 cells (human kidney origin) and Vero cells (monkey kidney origin) were resuspended in PBS to a final concentration of 10^6 cells/ml before incubation with 10 μM CFSE dye (CELLTRACE™ CFSE cell proliferation kit, INVITROGEN™) at 37° C. for 10 min. To quench the staining, ice-old culture media were then added and incubated on ice for 5 min. […] Forty-eight hours later, cells were harvested and analyzed by flow cytometry (FACSCanto, BD Bioscience).

Molecule: CC(C)[C@H](NC(=O)[C@@H](NC(=O)[C@@H](N)[C@@H](C)O)C(C)C)C(=O)N[C@@H](CCCNC(=N)N)C(=O)N[C@@H](CCCNC(=N)N)C(=O)N[C@@H](CCCNC(=N)N)C(=O)NCC(=O)N[C@@H](CCCNC(=N)N)C(=O)N[C@@H](COP(=O)(O)O)C(=O)N1CCC[C@H]1C(=O)N[C@@H](CCCNC(=N)N)C(=O)N[C@@H](CCCNC(=N)N)C(=O)N[C@@H](CCCNC(=N)N)C(=O)N[C@H](C(=O)N1CCC[C@H]1C(=O)N[C@@H](COP(=O)(O)O)C(=O)N1CCC[C@H]1C(=O)N[C@@H](CCCNC(=N)N)C(=O)N[C@@H](CCCNC(=N)N)C(=O)N[C@@H](CCCNC(=N)N)C(=O)N[C@@H](CCCNC(=N)N)C(=O)N[C@@H](CO)C(=O)N[C@@H](CCC(N)=O)C(=O)N[C@@H](COP(=O)(O)O)C(=O)N1CCC[C@H]1C(=O)N[C@@H](CCCNC(=N)N)C(=O)N[C@@H](CCCNC(=N)N)C(=O)N[C@@H](CCCNC(=N)N)C(=O)N[C@@H](CCCNC(=N)N)C(=O)N[C@@H](CO)C(=O)N[C@@H](CCC(N)=O)C(=O)N[C@@H](CO)C(=O)N[C@@H](CCCNC(=N)N)C(=O)N[C@@H](CCC(=O)O)C(=O)N[C@@H](CO)C(=O)N[C@@H](CCC(N)=O)C(=O)N[C@@H](CS)C(=O)O)[C@@H](C)O [HBc155p162p170p]
- MBC [1]: > 32 µM

Molecule: CC[C@H](C)[C@H](NC(=O)CN)C(=O)NCC(=O)N[C@@H](C)C(=O)N[C@H](C(=O)N[C@@H](CC(C)C)C(=O)N[C@@H](CCCCN)C(=O)N[C@H](C(=O)N[C@@H](CC(C)C)C(=O)N[C@H](C(=O)N[C@H](C(=O)NCC(=O)N[C@@H](CC(C)C)C(=O)N1CCC[C@H]1C(=O)N[C@@H](C)C(=O)N[C@@H](CC(C)C)C(=O)N[C@H](C(=O)N[C@@H](CO)C(=O)N[C@@H](Cc1c[nH]c2ccccc12)C(=O)N[C@H](C(=O)N[C@@H](CCCCN)C(=O)N[C@@H](CCCNC(=N)N)C(=O)N[C@@H](CCCCN)C(=O)N[C@@H](CCCNC(=N)N)C(=O)N[C@@H](CCC(N)=O)C(=O)N[C@@H](CCC(N)=O)C(N)=O)[C@@H](C)CC)[C@@H](C)CC)[C@@H](C)O)[C@@H](C)O)C(C)C)C(C)C [melittin, reference compound]
- effect on cell viability [2]: strong toxicity
- viability of cells ([2]; low dose (3.125 μM), 1 hour): significantly decreased

Molecule: TVIRRRGGARASRSPRRRTPSPRRRRSQSPRRRRSQSPSANC [wHBc ARD]
- Minimal bactericidal concentration ([3]; P. aeruginosa ATCC 9027): 2 µM
- Minimal bactericidal concentration ([3]; P. aeruginosa ATCC 27853): 2 µM
- Minimal bactericidal concentration [4]: 4 µM
- Minimal bactericidal concentration [5]: 2 µM
- Minimal bactericidal concentration [6]: 8 µM

Molecule: TVVRRRGRSPRRRTPSPRRRRSQSPRRRRSQSRESQC [HBc147-183]
- in vivo toxicity ([7]; 20 mg/kg i.p.): no apparent in vivo toxicity
- survival after peptide injection ([7]; 10 and 20 mg/kg intraperitoneally, 7 days): All mice were alive
- MBC [8]: 0.5 to 1 µM
- MBC ([8]; colistin-resistant A. baumannii): 0.5 to 1 µM
- MBC ([3]; colistin-resistant P. aeruginosa): > 16 µM
- effect on cell viability [2]: no detectable effect
- cytotoxicity ([2]; 100 μM, 1 hour): only a low level of cytotoxicity
- MBC [9]: ~8 µM
- Minimal bactericidal concentration [4]: 4 µM
- MBC ([4]; E. coli, strain not given): around 4 μM
- hemolysis [10]: no detectable hemolysis
- effect on cell proliferation [11]: no significant effect
- MBC ([5]; K. pneumonia, strain not given): lower than 4 μM
- Minimal bactericidal concentration [5]: 2 µM
- Minimal bactericidal concentration [6]: 4 µM
- MBC ([6]; S. aureus, strain not given): around 4 μM
